Source: paper PMC9768162, “Synthesis of macrocyclic nucleoside antibacterials and their interactions with MraY” (Nature Communications, 2022)
Values after ≈ are worked out from the molar mass of the structure shown. Values joined by “and” are separate entries in the source; they are usually repeats but may differ in a detail not shown here. Equal values may be shown once. Read-outs that look alike come from different tables or passages of the source.

Columns and labels:
S. aureus [1] = conditions: S. aureus ATCC 29213; cited from earlier work
[2] = target: T1, MraYSA (S. aureus MraY enzyme) (Staphylococcus aureus, UniProt Q2FZ93); design: His tag (inferred from His-Trap purification); made in house; host or cells: E. coli; method as in PMID 27622529; conditions: read-out: MraYSA inhibitory activity IC50; cited from earlier work
T1 sequence (Q2FZ93 1-321): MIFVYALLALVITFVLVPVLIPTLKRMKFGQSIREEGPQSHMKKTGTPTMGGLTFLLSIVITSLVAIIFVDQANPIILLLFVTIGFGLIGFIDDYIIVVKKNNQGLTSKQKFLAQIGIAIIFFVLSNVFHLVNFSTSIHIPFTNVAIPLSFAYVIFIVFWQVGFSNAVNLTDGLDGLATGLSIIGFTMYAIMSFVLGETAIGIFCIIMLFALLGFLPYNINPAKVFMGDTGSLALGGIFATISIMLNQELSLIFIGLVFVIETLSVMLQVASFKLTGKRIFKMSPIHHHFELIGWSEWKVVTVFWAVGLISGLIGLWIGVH

P. aeruginosa = assay: Antibacterial activity, MIC by microdilution broth method (CLSI); assay type: cell-based; conditions: Pseudomonas aeruginosa, ATCC27853; P. aeruginosa ATCC 27853; CA-MHB, 37 °C, 20 h
M. tuberculosis = assay: MIC in 7H9 liquid medium, 2 weeks; assay type: cell-based; conditions: Mycobacterium tuberculosis, 336 h, M. tuberculosis H37Rv, 37 °C, minimum concentration inhibiting at least 50% of growth
[3] = test system: Gram-negative bacterial strains; assay: Antibacterial activity against Gram-negative bacteria; assay type: cell-based; conditions: four Gram-negative bacterial strains examined
E. coli = assay: Antibacterial activity, MIC by microdilution broth method (CLSI); conditions: E. coli ATCC 25922; CA-MHB, 37 °C, 20 h
A. baumannii = assay: as above; assay type: cell-based; conditions: Acinetobacter baumannii, ATCC19606; A. baumannii ATCC 19606; CA-MHB, 37 °C, 20 h
E. faecium = assay: as above; assay type: cell-based, Enterococcus faecium; conditions: Enterococcus faecium, ATCC35667, 20 h, E. faecium ATCC 35667; CA-MHB, 37 °C, 20 h; read-out: MIC
[4] = target: T1, MraYSA (S. aureus MraY enzyme); assay: Fluorescence-based MraY inhibitory assay (dansylated Park's nucleotide); conditions: for MraYSA activity, source data of Fig. 7b, average: average of n=1-3
M. avium = assay: MIC in 7H9 liquid medium, 2 weeks; assay type: cell-based; conditions: Mycobacterium avium, ATCC25291, 336 h, M. avium ATCC 25291, 37 °C, minimum concentration inhibiting at least 50% of growth
K. pneumoniae = assay: Antibacterial activity, MIC by microdilution broth method (CLSI); assay type: cell-based; conditions: Klebsiella pneumoniae, ATCC13883; K. pneumoniae ATCC 13883; CA-MHB, 37 °C, 20 h
E. cloacae = assay: as above; assay type: cell-based; conditions: Enterobacter cloacae, ATCC13047; E. cloacae ATCC 13047; CA-MHB, 37 °C, 20 h
Gram-positive bacteria = assay: Antibacterial activity against Gram-positive bacteria; assay type: cell-based; conditions: for antibacterial activity against Gram-positive bacteria: such as S. aureus and E. faecium
S. aureus [5] = assay: Antibacterial activity, MIC by microdilution broth method (CLSI); assay type: cell-based, Staphylococcus aureus; conditions: Staphylococcus aureus, ATCC29213, 20 h, S. aureus ATCC 29213; CA-MHB, 37 °C, 20 h
MraYAA = MraYAA (Aquifex aeolicus, UniProt O66465); assay: UMP-Glo assay; conditions: for Normalized (UMP / Lipid I formed minus no-enzyme average), source data of Fig. 7a: replicates 1-3
Sequence of MraYAA (O66465 whole entry): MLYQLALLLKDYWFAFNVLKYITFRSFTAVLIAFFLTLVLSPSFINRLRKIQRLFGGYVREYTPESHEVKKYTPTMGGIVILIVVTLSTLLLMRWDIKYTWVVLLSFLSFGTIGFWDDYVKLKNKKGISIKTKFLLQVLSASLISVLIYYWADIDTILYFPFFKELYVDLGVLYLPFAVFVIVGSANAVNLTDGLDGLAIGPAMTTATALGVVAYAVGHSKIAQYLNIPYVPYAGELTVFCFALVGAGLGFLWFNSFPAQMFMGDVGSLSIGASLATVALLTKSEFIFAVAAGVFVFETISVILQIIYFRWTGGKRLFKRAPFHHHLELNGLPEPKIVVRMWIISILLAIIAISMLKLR

| SMILES | MIC (P. aeruginosa) | MIC (M. tuberculosis) | antibacterial activity against Gram-negative bacterial strains [3] | MIC (E. coli) | MIC (A. baumannii) | MIC (E. faecium) | IC50 [4] | MraYSA activity, source data of Fig. 7b, average ([4]; compound 0.0001 µM) | MraYSA activity, source data of Fig. 7b, average ([4]; compound 0.001 µM) | MraYSA activity, source data of Fig. 7b, average ([4]; compound 0.01 µM) | MraYSA activity, source data of Fig. 7b, average ([4]; compound 0.1 µM) | MraYSA activity, source data of Fig. 7b, average ([4]; compound 1 µM) | MraYSA activity, source data of Fig. 7b, average ([4]; compound 10 µM) | MraYSA activity, source data of Fig. 7b, average ([4]; compound 100 µM) | MIC (M. avium) | MIC (K. pneumoniae) | MIC (E. cloacae) | antibacterial activity against Gram-positive bacteria (Gram-positive bacteria) | MIC (S. aureus [5]) | IC50 (MraYAA) | also measured |
| --- | --- | --- | --- | --- | --- | --- | --- | --- | --- | --- | --- | --- | --- | --- | --- | --- | --- | --- | --- | --- | --- |
| CCCCCCCCCCCCCCCCC[C@H]1CN(C)[C@@H]([C@H](O[C@@H]2O[C@H](CN)[C@@H](O)[C@H]2O)[C@H]2O[C@@H](n3ccc(=O)[nH]c3=O)[C@H](O)[C@@H]2O)C(=O)N(C)[C@@H]1C(=O)O [Carbacaprazamycin] |  |  |  |  |  |  |  |  |  |  |  |  |  |  |  |  |  |  |  |  | MIC (S. aureus [1]): 8 µg/mL (≈ 10 µM); IC50 [2]: 3.8 nM |
| CCCCCCCCCCCCCCCC(=O)O[C@@H]1[C@@H]2CN(C[C@@H]1O)[C@H](C(=O)O)[C@@H]([C@H]1O[C@@H](n3ccc(=O)[nH]c3=O)[C@H](O)[C@@H]1O)O[C@@H]1O[C@H](CN2)[C@@H](O)[C@H]1O [SPM-1] | > 64 µg/mL | 16 µg/mL (≈ 20.4 µM) | inactive | >64 µg/mL | > 64 µg/mL | 4 µg/mL (≈ 5.1 µM) | 9.1 nM | 94.43 | 84.3881 | 49.3175 | 11.924 | 3.067 | 2.786 | 7.015 | 2 µg/mL (≈ 2.55 µM) | > 64 µg/mL | > 64 µg/mL | active | 2 µg/mL (≈ 2.55 µM) | 170 nM | MIC (Gram-positive bacteria; range over S. aureus and E. faecium of Table 1, read-out: MIC against the Gram-positive pathogens): 2 to 4 µg/mL (≈ 2.55 to 5.1 µM); Normalized (UMP / Lipid I formed minus no-enzyme average), source data of Fig. 7a (MraYAA; inhibitor concentration 0.025): 27.4002 and 27.6068 and 25.0152; Normalized (UMP / Lipid I formed minus no-enzyme average), source data of Fig. 7a (MraYAA; inhibitor concentration 0.05): 23.6062 and 21.9589 and 21.8339; Normalized (UMP / Lipid I formed minus no-enzyme average), source data of Fig. 7a (MraYAA; inhibitor concentration 0.1): 22.1835 and 21.2199 and 20.7564; Normalized (UMP / Lipid I formed minus no-enzyme average), source data of Fig. 7a (MraYAA; inhibitor concentration 0.2): 13.2781 and 11.6659 and 13.2137; Normalized (UMP / Lipid I formed minus no-enzyme average), source data of Fig. 7a (MraYAA; inhibitor concentration 0.3): 8.4302 and 9.0267 and 7.4669; Normalized (UMP / Lipid I formed minus no-enzyme average), source data of Fig. 7a (MraYAA; inhibitor concentration 0.4): 6.5859 and 6.3347 and 6.5433; Normalized (UMP / Lipid I formed minus no-enzyme average), source data of Fig. 7a (MraYAA; inhibitor concentration 0.8): 3.6877 and 2.5343 and 3.6699; Normalized (UMP / Lipid I formed minus no-enzyme average), source data of Fig. 7a (MraYAA; inhibitor concentration 1): 4.5308 and 4.5928 and 4.1831; Normalized (UMP / Lipid I formed minus no-enzyme average), source data of Fig. 7a (MraYAA; inhibitor concentration 5): 0.1572 and 0.6868 and 0.8992; Normalized (UMP / Lipid I formed minus no-enzyme average), source data of Fig. 7a (MraYAA; inhibitor concentration 50): 0.4734 and -0.0522 and 0.3348 |
| CCCCCCCCCCCCCCCC(=O)O[C@@H]1[C@H](O)CN2C[C@H]1NC[C@H]1O[C@@H](O[C@H]([C@H]3O[C@@H](n4ccc(=O)[nH]c4=O)[C@H](O)[C@@H]3O)[C@H]2C(=O)O)[C@H](O)[C@@H]1O [SPM-2] | > 64 µg/mL | > 32 µg/mL | inactive | >64 µg/mL | > 64 µg/mL | 16 µg/mL (≈ 20.4 µM) | 330 nM | 104.091 | 99.892 | 103.991 | 72.6566 | 26.5839 | 7.955 | 4.902 | 16 µg/mL (≈ 20.4 µM) | > 64 µg/mL | > 64 µg/mL | active | > 64 µg/mL | 9200 nM | MIC increase relative to SPM-1 (Gram-positive bacteria; Gram-positive pathogens): 4 fold; Normalized (UMP / Lipid I formed minus no-enzyme average), source data of Fig. 7a (MraYAA; inhibitor concentration 0.1): 34.6720 and 31.83 and 31.8908; Normalized (UMP / Lipid I formed minus no-enzyme average), source data of Fig. 7a (MraYAA; inhibitor concentration 0.4): 29.3499 and 29.56 and 31.6856; Normalized (UMP / Lipid I formed minus no-enzyme average), source data of Fig. 7a (MraYAA; inhibitor concentration 1): 31.9846 and 31.04 and 28.7608; Normalized (UMP / Lipid I formed minus no-enzyme average), source data of Fig. 7a (MraYAA; inhibitor concentration 2.5): 26.0302 and 21.75 and 21.7826; Normalized (UMP / Lipid I formed minus no-enzyme average), source data of Fig. 7a (MraYAA; inhibitor concentration 5): 29.9822 and 25.5 and 23.2193; Normalized (UMP / Lipid I formed minus no-enzyme average), source data of Fig. 7a (MraYAA; inhibitor concentration 12.5): 17.4410 and 14.04 and 12.8545; Normalized (UMP / Lipid I formed minus no-enzyme average), source data of Fig. 7a (MraYAA; inhibitor concentration 25): 11.3284 and 8.499 and 7.57; Normalized (UMP / Lipid I formed minus no-enzyme average), source data of Fig. 7a (MraYAA; inhibitor concentration 50): 4.6362 and 4.593 and 4.08; Normalized (UMP / Lipid I formed minus no-enzyme average), source data of Fig. 7a (MraYAA; inhibitor concentration 70): 3.9512 and 2.534 and 2.592; Normalized (UMP / Lipid I formed minus no-enzyme average), source data of Fig. 7a (MraYAA; inhibitor concentration 140): 2.0542 and 1.162 and 1.464 |
